“Also recorded” adds a separate entry of the source.
How the values were obtained:
RS11846 cells = assay: RS11846 apoptosis, Annexin V-FITC and propidium iodide assay; conditions: result in words
[1] = result in words; cited from earlier work
[2] = system: Bax/Bak double knockout MEF cells (DKO/MEFs); assay: Bax/Bak double knockout MEF cytotoxicity, FITC-Annexin V/PI assay; assay type: cell-based, mouse; conditions: 10 μM, result in words
[3] = in vitro plasma stability
[4] = in vitro microsomal stability; conditions: rat microsomes
BP3 cells = assay: BP3 cells, Annexin V-FITC and propidium iodide assay; conditions: result in words
[5] = chemical stability as solid powder at room temperature; assay type: physicochemical; conditions: in air, no ascorbic acid
GST–Bcl-XL ΔTM protein = GST–Bcl-XL ΔTM protein (Homo sapiens, UniProt Q07817); assay: competitive fluorescence polarization assay; assay type: binding; conditions: relative to compound 2
GST-Bcl-2 = GST-Bcl-2 (Homo sapiens, UniProt P10415); assay: competitive fluorescence polarization assay; assay type: binding; conditions: relative to compound 2
GST-Mcl-1 = GST-Mcl-1 (Homo sapiens, UniProt Q07820); assay: competitive fluorescence polarization assay; assay type: binding; conditions: relative to compound 2
Bfl-1 = molecular target: T1, Bfl-1 (Homo sapiens, UniProt Q16548); assay: competitive fluorescence polarization assay; assay type: binding; conditions: relative to compound 2
T1 sequence (Q16548 1-175): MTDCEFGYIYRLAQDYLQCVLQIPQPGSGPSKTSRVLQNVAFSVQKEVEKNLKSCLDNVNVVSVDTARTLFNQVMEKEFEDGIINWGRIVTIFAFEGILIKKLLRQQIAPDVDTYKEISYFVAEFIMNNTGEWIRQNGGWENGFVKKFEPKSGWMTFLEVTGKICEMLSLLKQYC

Bcl-XL = Bcl-XL (Homo sapiens, UniProt Q07817); assay: Isothermal Titration Calorimetry; assay type: binding; conditions: relative to compound 2
[6] = single dose of 100, 75, 50 and 25 mg/kg ip, 14 days, result in words
Bcl-2 transgenic mice = assay: spleen weight reduction in Bcl-2 transgenic mice; assay type: in vivo, mouse; conditions: single ip injection, 72 μmol/kg, result in words

Sequence of Bcl-XL (Q07817 whole entry): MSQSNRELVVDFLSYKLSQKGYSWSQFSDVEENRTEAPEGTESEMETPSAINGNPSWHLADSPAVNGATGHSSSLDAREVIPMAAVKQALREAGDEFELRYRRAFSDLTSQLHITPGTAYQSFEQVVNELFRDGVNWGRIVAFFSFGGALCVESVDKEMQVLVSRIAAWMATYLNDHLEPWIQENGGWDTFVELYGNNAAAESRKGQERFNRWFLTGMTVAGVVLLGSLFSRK
Sequence of GST–Bcl-XL ΔTM protein (Q07817 1-209 limits assumed, stated change not applied): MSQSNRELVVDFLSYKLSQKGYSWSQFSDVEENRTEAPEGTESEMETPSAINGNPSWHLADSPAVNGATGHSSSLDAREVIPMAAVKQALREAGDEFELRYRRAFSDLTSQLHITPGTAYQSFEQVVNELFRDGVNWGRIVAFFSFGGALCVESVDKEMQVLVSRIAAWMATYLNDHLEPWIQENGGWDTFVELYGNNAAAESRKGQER
Sequence of GST-Mcl-1 (Q07820 whole entry): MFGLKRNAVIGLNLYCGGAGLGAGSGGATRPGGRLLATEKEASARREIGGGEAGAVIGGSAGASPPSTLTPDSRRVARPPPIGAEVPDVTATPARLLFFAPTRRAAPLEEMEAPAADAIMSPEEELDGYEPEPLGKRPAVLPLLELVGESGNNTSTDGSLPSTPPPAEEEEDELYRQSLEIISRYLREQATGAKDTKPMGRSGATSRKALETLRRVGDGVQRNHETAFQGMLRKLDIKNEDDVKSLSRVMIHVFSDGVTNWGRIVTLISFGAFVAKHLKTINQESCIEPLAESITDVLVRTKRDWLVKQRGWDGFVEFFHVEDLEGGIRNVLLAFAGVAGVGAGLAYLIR
Sequence of GST-Bcl-2 (P10415 whole entry): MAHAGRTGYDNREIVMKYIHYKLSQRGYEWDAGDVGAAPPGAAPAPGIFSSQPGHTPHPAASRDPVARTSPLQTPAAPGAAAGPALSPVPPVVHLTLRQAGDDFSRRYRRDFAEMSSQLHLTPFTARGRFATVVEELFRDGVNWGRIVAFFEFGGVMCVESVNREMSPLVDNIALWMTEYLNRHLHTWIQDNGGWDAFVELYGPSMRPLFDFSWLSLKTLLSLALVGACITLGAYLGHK

With Cc1cc2cc(O)c(O)cc2c(O)c1-c1c(C)cc2cc(O)c(O)cc2c1O [Compound 13, 3,3′-Dimethyl-2,2′-binaphthyl-1,1′,6,6′,7,7′-hexaol] the “induction of apoptosis of the RS11846 cell line” value (RS11846 cells) was “little or no apoptosis”.
In the case of Cc1cc2c(C(=O)Cc3ccccc3)c(O)c(O)cc2c(O)c1-c1c(C)cc2c(C(=O)Cc3ccccc3)c(O)c(O)cc2c1O [Compound 3], the “GI toxicity in mice” value [1] is given as “mild GI toxicity”.
In the case of Cc1cc2c(C(=O)NCC3CCCCC3)c(O)c(O)cc2c(O)c1-c1c(C)cc2c(C(=O)NCC3CCCCC3)c(O)c(O)cc2c1O [Compound 8m, N^5,N^5′-Bis(cyclohexylmethyl)-1,1′,6,6′,7,7′-hexahydroxy-3,3′-dimethyl-2,2′-binaphthyl-5,5′-dicarboxamide], the “killing of DKO/MEFs (bax−/−bak−/− cells)” value [2] is reported as “ineffective”, the “degraded after 1 h incubation in rat plasma” value (shortened to “degraded … in rat plasma”) [3] is reported as 11% and the “degraded after 1 h incubation in rat microsomal preparations” value (“degraded … in rat microsomal preparations” below) [4] is reported as 10%.
For CN(C)CC[C@H](CSc1ccccc1)Nc1ccc(S(=O)(=O)NC(=O)c2ccc(N3CCN(Cc4ccccc4-c4ccc(Cl)cc4)CC3)cc2)cc1[N+](=O)[O-] [Compound 15], the “cytotoxic activity against BP3 cell lines” value (BP3 cells) was “no cytotoxic activity”.
In the case of CCc1ccc(CCNC(=O)c2c(O)c(O)cc3c(O)c(-c4c(C)cc5c(C(=O)NCCc6ccc(CC)cc6)c(O)c(O)cc5c4O)c(C)cc23)cc1 [Compound 8q, N^5,N^5′-Bis(4-ethylphenethyl)-1,1′,6,6′,7,7′-hexahydroxy-3,3′-dimethyl-2,2′-binaphthyl-5,5′-dicarboxamide], the “killing of DKO/MEFs (bax−/−bak−/− cells)” value [2] is reported as “ineffective” and the “degraded after 60 days at room temperature” value (shortened to “degraded after 60 days”) [5] is reported as 10%.
With Cc1cc2c(C(C)C)c(O)c(O)cc2c(O)c1-c1c(C)cc2c(C(C)C)c(O)c(O)cc2c1O [Compound 2, 5,5′-Diisopropyl-1,1′,6,6′,7,7′-hexahydroxy-3,3′-dimethyl-2,2′-binaphthalene, reference compound] the “killing of DKO/MEFs (bax−/−bak−/− cells)” value [2] was “reduced cytotoxicity against MEF/DKOs”, the “degraded after 60 days” value [5] was roughly 80% and the “degraded … in rat plasma” value [3] was 47%. For the same compound, the “degraded … in rat microsomal preparations” value [4] was 36%.
With Cc1cc2c(C(=O)NC(C)c3ccc(Cl)cc3)c(O)c(O)cc2c(O)c1-c1c(C)cc2c(C(=O)NC(C)c3ccc(Cl)cc3)c(O)c(O)cc2c1O (stereo not shown) [Compound 8k, N^5,N^5′-Bis(1-(4-chlorophenyl)ethyl)-1,1′,6,6′,7,7′-hexahydroxy-3,3′-dimethyl-2,2′-binaphthyl-5,5′-dicarboxamide] the “killing of DKO/MEFs (bax−/−bak−/− cells)” value [2] was “ineffective”.
For Cc1cc2c(C(=O)NCC(C)c3ccccc3)c(O)c(O)cc2c(O)c1-c1c(C)cc2c(C(=O)NCC(C)c3ccccc3)c(O)c(O)cc2c1O (stereo not shown) [Compound 8r, 1,1′,6,6′,7,7′-Hexahydroxy-3,3′-dimethyl-N^5,N^5′-bis(2-phenylpropyl)-2,2′-binaphthyl-5,5′-dicarboxamide], the “times more effective than 2, FP displacement Bcl-XL” value (GST–Bcl-XL ΔTM protein) was 5 times, the “times higher potency than compound 2, FP Bcl-2” value (GST-Bcl-2) was “approximately 10 times” and the “times higher potency than compound 2, FP Mcl-1” value (GST-Mcl-1) was “approximately 10 times”. The “times higher potency than compound 2, FP Bfl-1” value (Bfl-1) was “approximately 10 times”, the “times more potent than compound 2, ITC Bcl-XL” value (Bcl-XL) was 15 times and the “killing of DKO/MEFs (bax−/−bak−/− cells)” value [2] was “ineffective; also recorded: little cytotoxicity”. The “degraded after 60 days” value [5] was 10%, the mortality [6] was “All mice were alive after 14 days” and the “degraded … in rat plasma” value [3] was 4%. For the same compound, the “degraded … in rat microsomal preparations” value [4] was 24%.
In the case of Cc1cc2c(C(=O)O)c(O)c(O)cc2c(O)c1-c1c(C)cc2c(C(=O)O)c(O)c(O)cc2c1O [Compound 14, 1,1′,6,6′,7,7′-Hexahydroxy-3,3′-dimethyl-2,2′-binaphthyl-5,5′-dicarboxylic acid], the “induction of apoptosis of the RS11846 cell line” value (RS11846 cells) is reported as “little or no apoptosis”.
In the case of Cc1cc2c(C(=O)NCCc3cccc(Cl)c3)c(O)c(O)cc2c(O)c1-c1c(C)cc2c(C(=O)NCCc3cccc(Cl)c3)c(O)c(O)cc2c1O [Compound 8p, N^5,N^5′-Bis(3-chlorophenethyl)-1,1′,6,6′,7,7′-hexahydroxy-3,3′-dimethyl-2,2′-binaphthyl-5,5′-dicarboxamide], the “killing of DKO/MEFs (bax−/−bak−/− cells)” value [2] is reported as “ineffective”.
With Cc1cc2c(CC3CCCC3)c(O)c(O)cc2c(O)c1-c1c(C)cc2c(CC3CCCC3)c(O)c(O)cc2c1O [Compound 12c, 5,5′-Bis(cyclopentylmethyl)-3,3′-dimethyl-2,2′-binaphthyl-1,1′,6,6′,7,7′-hexaol] the “in vivo activity in Bcl-2 transgenic mice” value (Bcl-2 transgenic mice) was “lower in vivo activity”.
With Cc1cc2c(CCc3ccccc3)c(O)c(O)cc2c(O)c1-c1c(C)cc2c(CCc3ccccc3)c(O)c(O)cc2c1O [Compound 12e, 3,3′-Dimethyl-5,5′-diphenethyl-2,2′-binaphthyl-1,1′,6,6′,7,7′-hexaol] the “in vivo activity in Bcl-2 transgenic mice” value (Bcl-2 transgenic mice) was “lower in vivo activity”.
With Cc1cc2c(C(C)C)c(O)c(O)c(C=O)c2c(O)c1-c1c(C)cc2c(C(C)C)c(O)c(O)c(C=O)c2c1O [Compound 1, 1,1′,6,6′,7,7′-Hexahydroxy-5,5′-diisopropyl-3,3′-dimethyl-2,2′-binaphthyl-8,8′-dicarboxaldehyde, reference compound] the “killing of DKO/MEFs (bax−/−bak−/− cells)” value [2] was “equally effective in killing both wt MEFs and MEF/DKOs”.

From paper PMC2747480 (Journal of medicinal chemistry, 2009)
